# Source: ChEMBL document CHEMBL1150390, “Identification of halosalicylamide derivatives as a novel class of allosteric inhibitors of HCV NS5B polymerase” (Bioorg Med Chem Lett, 2008)
# pIC50: −log10 of the molar value.
# Tested on: Hepatitis C virus
# Experiment: Inhibition of HCV 1b NS5B polymerase
# Set-up: species or system Hepatitis C virus subtype 1b
row,SMILES,pIC50
1,Nc1c(Br)cc(Br)cc1C(=O)Nc1ccc(Br)cc1,4.01
2,O=C(Nc1ccc(Cl)c(Cl)c1)c1cc(I)cc(I)c1O,5.33
3,COc1c(Cl)cc(Cl)cc1C(=O)Nc1ccc(Br)cc1,< 3.70
4,O=C(Nc1ccc(Br)cc1)c1cc(I)cc(I)c1O,5.00
5,CN(C(=O)c1cc(Br)cc(Br)c1O)c1ccc(Cl)cc1,3.87
6,O=C(Nc1ccc(F)cc1)c1cc(I)cc(I)c1O,4.48
7,COc1cc(Br)ccc1NC(=O)c1cc(Cl)cc(Cl)c1OC,< 3.70
8,O=C(Nc1cccc(Br)c1)c1cc(Br)cc(Br)c1O,5.16
9,Cc1ccc(NC(=O)c2cc(I)cc(I)c2O)cc1,4.43
10,O=C(Nc1ccc(Cl)cc1)c1cc(I)cc(I)c1O,4.96
11,O=C(Nc1ccc(Oc2ccccc2)cc1)c1cc(I)cc(I)c1O,5.25
12,O=C(Nc1ccc(O)cc1)c1cc(I)cc(I)c1O,4.27
13,O=C(Nc1ccc(Nc2ccccc2)cc1)c1cc(I)cc(I)c1O,5.72
14,"O=C(Nc1ccc(Cl)c(Cl)c1)c1cc(Cl)cc(Cl)c1O [3,3',4',5-TETRACHLOROSALICYLANILIDE]",5.07
15,Nc1c(Br)cc(Br)cc1C(=O)Nc1cccc(Br)c1,3.88
16,CN(C(=O)c1cc(I)cc(I)c1O)c1ccc(Cl)c(Cl)c1,< 3.70
17,CC(=O)Oc1c(I)cc(I)cc1C(=O)Nc1ccc(Cl)c(Cl)c1,< 3.70
18,O=C(Nc1ccc(Br)cc1)c1cc(Br)cc(Br)c1O [TRIBROMSALAN],5.17
19,COc1ccc(NC(=O)c2cc(I)cc(I)c2O)cc1,4.34
20,Cc1cc(NC(=O)c2cc(Cl)cc(Cl)c2N)ccc1Cl,3.97
21,O=C(Nc1ccccc1)c1cc(I)cc(I)c1O,4.34
22,O=C(Nc1ccc(Cl)cc1O)c1cc(I)cc(I)c1O,5.07
23,Cc1cc(NC(=O)c2cc(Cl)cc(Cl)c2O)ccc1Cl,5.05
24,Nc1ccc(NC(=O)c2cc(I)cc(I)c2O)cc1,4.52
25,Oc1c(I)cc(I)cc1/C=N/c1ccc(Cl)cc1Cl,5.06
26,Nc1c(Cl)cc(Cl)cc1C(=O)Nc1ccc(Cl)c(Cl)c1,3.99

# Biological target: Genome polyprotein (Hepatitis C virus genotype 1b (isolate BK) (HCV), UniProt P26663)
# Sequence (P26663 2420-3010 limits assumed): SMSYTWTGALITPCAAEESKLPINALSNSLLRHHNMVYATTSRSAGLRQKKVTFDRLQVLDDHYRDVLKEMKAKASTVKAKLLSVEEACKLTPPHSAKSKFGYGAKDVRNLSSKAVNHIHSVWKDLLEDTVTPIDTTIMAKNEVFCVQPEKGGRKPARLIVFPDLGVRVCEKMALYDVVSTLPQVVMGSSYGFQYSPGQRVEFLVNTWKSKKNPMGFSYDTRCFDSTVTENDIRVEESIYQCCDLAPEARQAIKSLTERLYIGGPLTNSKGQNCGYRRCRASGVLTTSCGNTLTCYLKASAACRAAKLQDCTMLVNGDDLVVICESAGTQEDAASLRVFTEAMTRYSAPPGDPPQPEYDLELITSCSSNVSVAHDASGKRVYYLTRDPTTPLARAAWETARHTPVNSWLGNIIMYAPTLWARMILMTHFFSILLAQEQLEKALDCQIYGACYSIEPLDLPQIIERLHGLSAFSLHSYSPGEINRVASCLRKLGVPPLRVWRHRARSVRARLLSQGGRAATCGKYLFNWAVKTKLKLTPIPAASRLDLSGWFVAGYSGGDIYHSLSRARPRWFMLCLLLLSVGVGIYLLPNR
# Experiment: Inhibition of HCV BK NS5B polymerase
row,SMILES,pIC50
1,O=C(Nc1ccc(Cl)c(Cl)c1)c1cc(I)cc(I)c1O,5.07

# Biological target: not listed separately
# Experiment: Inhibition of HCV 3a NS5B polymerase
# Set-up: species or system Hepatitis C virus subtype 3a
row,SMILES,pIC50
1,O=C(Nc1ccc(Cl)c(Cl)c1)c1cc(I)cc(I)c1O,4.84

# Biological target: not listed separately
# Experiment: Inhibition of HCV 1a NS5B polymerase
# Set-up: species or system Hepatitis C virus subtype 1a
row,SMILES,pIC50
1,O=C(Nc1ccc(Cl)c(Cl)c1)c1cc(I)cc(I)c1O,5.24

# Biological target: not listed separately
# Experiment: Inhibition of HCV 2b NS5B polymerase
# Set-up: species or system Hepatitis C virus subtype 2b
row,SMILES,pIC50
1,O=C(Nc1ccc(Cl)c(Cl)c1)c1cc(I)cc(I)c1O,4.76

# Biological target: not listed separately
# Experiment: Inhibition of HCV 2a NS5B polymerase
# Set-up: species or system Hepatitis C virus subtype 2a
row,SMILES,pIC50
1,O=C(Nc1ccc(Cl)c(Cl)c1)c1cc(I)cc(I)c1O,4.79
